Where two headings read alike, the source gives them in different places. Peptide text beside a SMILES is read from it. * marks the point of attachment. X41 = O=C1C=CC(=O)N1c1ccc(CCCCCCCCCCCCC(=O)*)cc1; X36 = O=C1C=CC(=O)N1c1ccc(CCCCCCCCCCCC(=O)*)cc1; X39 = O=C1C=CC(=O)N1c1ccc(CCCCCCCCCCC(=O)*)cc1; X73 = O=C1C=CC(=O)N1c1ccc(CCCCCCCCCC(=O)*)cc1; X40 = O=C1C=CC(=O)N1c1ccc(CCCCCCCCC(=O)*)cc1; X44 = O=C1C=CC(=O)N1c1ccc(CCCCCCCC(=O)*)cc1; X43 = O=C1C=CC(=O)N1c1ccc(CCCCCCC(=O)*)cc1; X37 = O=C1C=CC(=O)N1c1ccc(CCCCCC(=O)*)cc1; X69 = O=C1C=CC(=O)N1c1ccc(CCCCC(=O)*)cc1; X78 = O=C1C=CC(=O)N1c1ccc(CCCC(=O)*)cc1; X56 = O=C1C=CC(=O)N1c1ccc(CCC(=O)*)cc1; X76 = O=C1C=CC(=O)N1CCOCCCCCCCC(=O)*; X21 = O=C1C=CC(=O)N1CCOCCCCCCC(=O)*; X13 = O=C1C=CC(=O)N1CCOCCCCCC(=O)*; X32 = O=C1C=CC(=O)N1CCOCCOCCC(=O)*; X8 = O=C1C=CC(=O)N1CCOCCOCCCC(=O)*; X12 = O=C1C=CC(=O)N1CCOCCCCC(=O)*; X30 = O=C1C=CC(=O)N1CCOCCOCC(=O)*; X1 = O=C1C=CC(=O)N1CCOCCCC(=O)*; X42 = O=C1C=CC(=O)N1CCOCCC(=O)*; X38 = O=C1C=CC(=O)N1CCOCC(=O)*
Test: Half-lives and pharmacokinetic parameters of polypeptides vs HM-1
Conditions: in vivo
[1] = read-out: T1/2β (half-life) (converted)

SMILES	AUC(0-inf) [ng·h/mL]	MRT inf [h]	clearance [mL/min/kg]	half-life (T1/2β (half-life)) [h]	AUC(0-inf) (read-out: AUC0-∞) [ng·h/mL]	clearance (read-out: CL (converted)) [mL/min/kg]	MRT inf (read-out: MRT0-∞) [h]	half-life [1] [h]
C[C@H](NC(=O)CNC(=O)[C@H](CCCNC(=N)N)NC(=O)CCc1ccc(N2C(=O)C=CC2=O)cc1)C(=O)N[C@@H](CC(=O)O)C(=O)N[C@@H](CCCNC(=N)N)C(=O)N[C@@H](C)C(=O)NCC(=O)NCC(=O)NCC(=O)NCC(=O)N[C@@H](CCCNC(=N)N)C(=O)NCC(=O)N[C@@H](CC(=O)O)C(=O)O [X38] (X56-RGADRAGGGGRGD-OH)	31400 ± 7550	56.2 ± 11.2	0.532	38.94 ± 0.25	–	–	–	–
C[C@H](NC(=O)CNC(=O)[C@H](CCCNC(=N)N)NC(=O)CCCc1ccc(N2C(=O)C=CC2=O)cc1)C(=O)N[C@@H](CC(=O)O)C(=O)N[C@@H](CCCNC(=N)N)C(=O)N[C@@H](C)C(=O)NCC(=O)NCC(=O)NCC(=O)NCC(=O)N[C@@H](CCCNC(=N)N)C(=O)NCC(=O)N[C@@H](CC(=O)O)C(=O)O [X39] (X78-RGADRAGGGGRGD-OH)	32800 ± 7110	58.8 ± 13.1	0.508	40.73 ± 0.28	–	–	–	–
C[C@H](NC(=O)CNC(=O)[C@H](CCCNC(=N)N)NC(=O)CCCCc1ccc(N2C(=O)C=CC2=O)cc1)C(=O)N[C@@H](CC(=O)O)C(=O)N[C@@H](CCCNC(=N)N)C(=O)N[C@@H](C)C(=O)NCC(=O)NCC(=O)NCC(=O)NCC(=O)N[C@@H](CCCNC(=N)N)C(=O)NCC(=O)N[C@@H](CC(=O)O)C(=O)O [X40] (X69-RGADRAGGGGRGD-OH)	34000 ± 7830	60.9 ± 10.7	0.49	42.23 ± 0.27	–	–	–	–
C[C@H](NC(=O)CNC(=O)[C@H](CCCNC(=N)N)NC(=O)CCCCCc1ccc(N2C(=O)C=CC2=O)cc1)C(=O)N[C@@H](CC(=O)O)C(=O)N[C@@H](CCCNC(=N)N)C(=O)N[C@@H](C)C(=O)NCC(=O)NCC(=O)NCC(=O)NCC(=O)N[C@@H](CCCNC(=N)N)C(=O)NCC(=O)N[C@@H](CC(=O)O)C(=O)O [X41] (X37-RGADRAGGGGRGD-OH)	26500 ± 7810	47.5 ± 13.9	0.628	32.9 ± 0.36	–	–	–	–
C[C@H](NC(=O)CNC(=O)[C@H](CCCNC(=N)N)NC(=O)CCCCCCc1ccc(N2C(=O)C=CC2=O)cc1)C(=O)N[C@@H](CC(=O)O)C(=O)N[C@@H](CCCNC(=N)N)C(=O)N[C@@H](C)C(=O)NCC(=O)NCC(=O)NCC(=O)NCC(=O)N[C@@H](CCCNC(=N)N)C(=O)NCC(=O)N[C@@H](CC(=O)O)C(=O)O [X42] (X43-RGADRAGGGGRGD-OH)	27100 ± 8010	48.5 ± 10.6	0.615	33.58 ± 0.24	–	–	–	–
C[C@H](NC(=O)CNC(=O)[C@H](CCCNC(=N)N)NC(=O)CCCCCCCc1ccc(N2C(=O)C=CC2=O)cc1)C(=O)N[C@@H](CC(=O)O)C(=O)N[C@@H](CCCNC(=N)N)C(=O)N[C@@H](C)C(=O)NCC(=O)NCC(=O)NCC(=O)NCC(=O)N[C@@H](CCCNC(=N)N)C(=O)NCC(=O)N[C@@H](CC(=O)O)C(=O)O [X43] (X44-RGADRAGGGGRGD-OH)	26700 ± 7420	47.8 ± 9.93	0.623	33.14 ± 0.31	–	–	–	–
C[C@H](NC(=O)CNC(=O)[C@H](CCCNC(=N)N)NC(=O)CCCCCCCCc1ccc(N2C(=O)C=CC2=O)cc1)C(=O)N[C@@H](CC(=O)O)C(=O)N[C@@H](CCCNC(=N)N)C(=O)N[C@@H](C)C(=O)NCC(=O)NCC(=O)NCC(=O)NCC(=O)N[C@@H](CCCNC(=N)N)C(=O)NCC(=O)N[C@@H](CC(=O)O)C(=O)O [X44] (X40-RGADRAGGGGRGD-OH)	26800 ± 8440	48 ± 11.6	0.622	33.26 ± 0.28	–	–	–	–
C[C@H](NC(=O)CNC(=O)[C@H](CCCNC(=N)N)NC(=O)CCCCCCCCCc1ccc(N2C(=O)C=CC2=O)cc1)C(=O)N[C@@H](CC(=O)O)C(=O)N[C@@H](CCCNC(=N)N)C(=O)N[C@@H](C)C(=O)NCC(=O)NCC(=O)NCC(=O)NCC(=O)N[C@@H](CCCNC(=N)N)C(=O)NCC(=O)N[C@@H](CC(=O)O)C(=O)O [X45] (X73-RGADRAGGGGRGD-OH)	24300 ± 8330	43.5 ± 12	0.685	30.15 ± 0.26	–	–	–	–
C[C@H](NC(=O)CNC(=O)[C@H](CCCNC(=N)N)NC(=O)CCCCCCCCCCc1ccc(N2C(=O)C=CC2=O)cc1)C(=O)N[C@@H](CC(=O)O)C(=O)N[C@@H](CCCNC(=N)N)C(=O)N[C@@H](C)C(=O)NCC(=O)NCC(=O)NCC(=O)NCC(=O)N[C@@H](CCCNC(=N)N)C(=O)NCC(=O)N[C@@H](CC(=O)O)C(=O)O [X46] (X39-RGADRAGGGGRGD-OH)	31600 ± 7470	56.6 ± 11	0.527	39.23 ± 0.29	–	–	–	–
C[C@H](NC(=O)CNC(=O)[C@H](CCCNC(=N)N)NC(=O)CCCCCCCCCCCc1ccc(N2C(=O)C=CC2=O)cc1)C(=O)N[C@@H](CC(=O)O)C(=O)N[C@@H](CCCNC(=N)N)C(=O)N[C@@H](C)C(=O)NCC(=O)NCC(=O)NCC(=O)NCC(=O)N[C@@H](CCCNC(=N)N)C(=O)NCC(=O)N[C@@H](CC(=O)O)C(=O)O [X47] (X36-RGADRAGGGGRGD-OH)	33200 ± 7130	59.4 ± 12	0.502	41.19 ± 0.27	–	–	–	–
C[C@H](NC(=O)CNC(=O)[C@H](CCCNC(=N)N)NC(=O)CCCCCCCCCCCCc1ccc(N2C(=O)C=CC2=O)cc1)C(=O)N[C@@H](CC(=O)O)C(=O)N[C@@H](CCCNC(=N)N)C(=O)N[C@@H](C)C(=O)NCC(=O)NCC(=O)NCC(=O)NCC(=O)N[C@@H](CCCNC(=N)N)C(=O)NCC(=O)N[C@@H](CC(=O)O)C(=O)O [X48] (X41-RGADRAGGGGRGD-OH)	29200 ± 7650	52.9 ± 12.1	0.565	36.64 ± 0.27	–	–	–	–
C[C@H](NC(=O)CNC(=O)[C@H](CCCNC(=N)N)NC(=O)COCCN1C(=O)C=CC1=O)C(=O)N[C@@H](CC(=O)O)C(=O)N[C@@H](CCCNC(=N)N)C(=O)N[C@@H](C)C(=O)NCC(=O)NCC(=O)NCC(=O)NCC(=O)N[C@@H](CCCNC(=N)N)C(=O)NCC(=O)N[C@@H](CC(=O)O)C(=O)O [X49] (X38-RGADRAGGGGRGD-OH)	–	–	–	–	28500 ± 7290	0.585	51 ± 11.1	35.31 ± 0.32
C[C@H](NC(=O)CNC(=O)[C@H](CCCNC(=N)N)NC(=O)CCOCCN1C(=O)C=CC1=O)C(=O)N[C@@H](CC(=O)O)C(=O)N[C@@H](CCCNC(=N)N)C(=O)N[C@@H](C)C(=O)NCC(=O)NCC(=O)NCC(=O)NCC(=O)N[C@@H](CCCNC(=N)N)C(=O)NCC(=O)N[C@@H](CC(=O)O)C(=O)O [X50] (X42-RGADRAGGGGRGD-OH)	–	–	–	–	26900 ± 7090	0.62	48.1 ± 14.2	33.33 ± 0.25
C[C@H](NC(=O)CNC(=O)[C@H](CCCNC(=N)N)NC(=O)CCCOCCN1C(=O)C=CC1=O)C(=O)N[C@@H](CC(=O)O)C(=O)N[C@@H](CCCNC(=N)N)C(=O)N[C@@H](C)C(=O)NCC(=O)NCC(=O)NCC(=O)NCC(=O)N[C@@H](CCCNC(=N)N)C(=O)NCC(=O)N[C@@H](CC(=O)O)C(=O)O [X51] (X1-RGADRAGGGGRGD-OH)	32500 ± 7310	58.1 ± 9.42	0.513	40.28 ± 0.24	–	–	–	–
C[C@H](NC(=O)CNC(=O)[C@H](CCCNC(=N)N)NC(=O)CCCCOCCN1C(=O)C=CC1=O)C(=O)N[C@@H](CC(=O)O)C(=O)N[C@@H](CCCNC(=N)N)C(=O)N[C@@H](C)C(=O)NCC(=O)NCC(=O)NCC(=O)NCC(=O)N[C@@H](CCCNC(=N)N)C(=O)NCC(=O)N[C@@H](CC(=O)O)C(=O)O [X52] (X12-RGADRAGGGGRGD-OH)	27900 ± 8180	50.1 ± 9.67	0.597	34.69 ± 0.34	–	–	–	–
C[C@H](NC(=O)CNC(=O)[C@H](CCCNC(=N)N)NC(=O)CCCCCOCCN1C(=O)C=CC1=O)C(=O)N[C@@H](CC(=O)O)C(=O)N[C@@H](CCCNC(=N)N)C(=O)N[C@@H](C)C(=O)NCC(=O)NCC(=O)NCC(=O)NCC(=O)N[C@@H](CCCNC(=N)N)C(=O)NCC(=O)N[C@@H](CC(=O)O)C(=O)O [X53] (X13-RGADRAGGGGRGD-OH)	31100 ± 7940	55.5 ± 12.4	0.537	38.47 ± 0.24	–	–	–	–
C[C@H](NC(=O)CNC(=O)[C@H](CCCNC(=N)N)NC(=O)CCCCCCOCCN1C(=O)C=CC1=O)C(=O)N[C@@H](CC(=O)O)C(=O)N[C@@H](CCCNC(=N)N)C(=O)N[C@@H](C)C(=O)NCC(=O)NCC(=O)NCC(=O)NCC(=O)N[C@@H](CCCNC(=N)N)C(=O)NCC(=O)N[C@@H](CC(=O)O)C(=O)O [X54] (X21-RGADRAGGGGRGD-OH)	27200 ± 7640	48.8 ± 11.2	0.612	33.83 ± 0.25	–	–	–	–
C[C@H](NC(=O)CNC(=O)[C@H](CCCNC(=N)N)NC(=O)CCCCCCCOCCN1C(=O)C=CC1=O)C(=O)N[C@@H](CC(=O)O)C(=O)N[C@@H](CCCNC(=N)N)C(=O)N[C@@H](C)C(=O)NCC(=O)NCC(=O)NCC(=O)NCC(=O)N[C@@H](CCCNC(=N)N)C(=O)NCC(=O)N[C@@H](CC(=O)O)C(=O)O [X55] (X76-RGADRAGGGGRGD-OH)	24300 ± 8150	43.5 ± 12.4	0.687	30.1 ± 0.36	–	–	–	–
C[C@H](NC(=O)CNC(=O)[C@H](CCCNC(=N)N)NC(=O)COCCOCCN1C(=O)C=CC1=O)C(=O)N[C@@H](CC(=O)O)C(=O)N[C@@H](CCCNC(=N)N)C(=O)N[C@@H](C)C(=O)NCC(=O)NCC(=O)NCC(=O)NCC(=O)N[C@@H](CCCNC(=N)N)C(=O)NCC(=O)N[C@@H](CC(=O)O)C(=O)O [X56] (X30-RGADRAGGGGRGD-OH)	32900 ± 8070	59 ± 10.1	0.507	40.86 ± 0.29	–	–	–	–
C[C@H](NC(=O)CNC(=O)[C@H](CCCNC(=N)N)NC(=O)CCOCCOCCN1C(=O)C=CC1=O)C(=O)N[C@@H](CC(=O)O)C(=O)N[C@@H](CCCNC(=N)N)C(=O)N[C@@H](C)C(=O)NCC(=O)NCC(=O)NCC(=O)NCC(=O)N[C@@H](CCCNC(=N)N)C(=O)NCC(=O)N[C@@H](CC(=O)O)C(=O)O [X57] (X32-RGADRAGGGGRGD-OH)	33800 ± 8180	60.5 ± 10.5	0.493	41.93 ± 0.24	–	–	–	–
C[C@H](NC(=O)CNC(=O)[C@H](CCCNC(=N)N)NC(=O)CCCOCCOCCN1C(=O)C=CC1=O)C(=O)N[C@@H](CC(=O)O)C(=O)N[C@@H](CCCNC(=N)N)C(=O)N[C@@H](C)C(=O)NCC(=O)NCC(=O)NCC(=O)NCC(=O)N[C@@H](CCCNC(=N)N)C(=O)NCC(=O)N[C@@H](CC(=O)O)C(=O)O [X58] (X8-RGADRAGGGGRGD-OH)	26200 ± 7810	47.9 ± 13.5	0.635	32.57 ± 0.28	–	–	–	–

Reference: patent US20200270309A1, “MALEIMIDE GROUP-MODIFIED ANGIOGENESIS INHIBITOR HM-1 AND USE THEREOF” (NANJING ANJI BIOLOGICAL TECHNOLOGY CO., LTD, priority 2017, published 2020)
